Reference: PubChem BioAssay AID1963427 (Molecular Pharmacology Branch, DTP, NCI, 2024)
Values joined by “and” are separate entries in the source; they are usually repeats but may differ in a detail not shown here. Identical values can stand only once.

Tested on: 317291-083-R-J1-PDC complex spheroid growth
Assay: Anticancer human tumor 317291-083-R-J1-PDC patient-derived soft tissue sarcoma cell line growth inhibition [Asc]
Details: for viability, T/C: stronger effect = lower value
Outline: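 Concentration series start at each agent's clinical Cmax, or at 10 microM when none is established, and drop in half-log steps; agents are applied alone or together to complex spheroids built with HUVEC and hMSC.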
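Further: compound exposure lasted seven days after spheroids formed for three days.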
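Wherever viability, T/C is given: 100% = DMSO vehicle control wells.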

`O=C(c1cc(Cc2n[nH]c(=O)c3ccccc23)ccc1F)N1CCN(C(=O)C2CC2)CC1` + CCN1C(C(=O)NC23CCC(C(=O)O)(CC2)CC3)C(c2cccc(Cl)c2F)C2(C(=O)Nc3cc(Cl)ccc32)C12CCCCC2 gave an IC50 (curve of first compound, second compound 0.00949 µM) of 9.4 µM, an IC50 (curve of first compound, second compound 0.03 µM) of over 10 µM and an IC50 (curve of first compound, second compound 0.0949 µM) of over 10 µM. It also gave an IC50 (curve of first compound, second compound 0.3 µM) of 9.47 µM, an IC50 (curve of first compound, second compound 0.949 µM) of over 10 µM and an IC50 (curve of first compound, second compound 3 µM) of 7.68 µM. The viability, T/C (second compound 0.00949 µM, first compound 0.0316 µM) was 111%, the viability, T/C (second compound 0.00949 µM, first compound 0.1 µM) was 108% and the viability, T/C (second compound 0.00949 µM, first compound 0.316 µM) was 108%. For the same molecule, the viability, T/C (second compound 0.00949 µM, first compound 1 µM) was 86.9%, the viability, T/C (second compound 0.00949 µM, first compound 3.16 µM) was 92.7% and the viability, T/C (second compound 0.00949 µM, first compound 10 µM) was 46.2%. The viability, T/C (second compound 0.03 µM, first compound 0.0316 µM) was 110%, the viability, T/C (second compound 0.03 µM, first compound 0.1 µM) was 101% and the viability, T/C (second compound 0.03 µM, first compound 0.316 µM) was 102%. For the same molecule, the viability, T/C (second compound 0.03 µM, first compound 1 µM) was 104%, the viability, T/C (second compound 0.03 µM, first compound 3.16 µM) was 81.7% and the viability, T/C (second compound 0.03 µM, first compound 10 µM) was 54.6%. The viability, T/C (second compound 0.0949 µM, first compound 0.0316 µM) was 101%, the viability, T/C (second compound 0.0949 µM, first compound 0.1 µM) was 105% and the viability, T/C (second compound 0.0949 µM, first compound 0.316 µM) was 92.1%. The viability, T/C (second compound 0.0949 µM, first compound 1 µM) was 104%, the viability, T/C (second compound 0.0949 µM, first compound 3.16 µM) was 77.2% and the viability, T/C (second compound 0.0949 µM, first compound 10 µM) was 53%. The viability, T/C (second compound 0.3 µM, first compound 0.0316 µM) was 116%, the viability, T/C (second compound 0.3 µM, first compound 0.1 µM) was 114% and the viability, T/C (second compound 0.3 µM, first compound 0.316 µM) was 102%. The viability, T/C (second compound 0.3 µM, first compound 1 µM) was 91.2%, the viability, T/C (second compound 0.3 µM, first compound 3.16 µM) was 93.2% and the viability, T/C (second compound 0.3 µM, first compound 10 µM) was 46.2%. For the same molecule, the viability, T/C (second compound 0.949 µM, first compound 0.0316 µM) was 107%, the viability, T/C (second compound 0.949 µM, first compound 0.1 µM) was 109% and the viability, T/C (second compound 0.949 µM, first compound 0.316 µM) was 107%. The viability, T/C (second compound 0.949 µM, first compound 1 µM) was 92.4%, the viability, T/C (second compound 0.949 µM, first compound 3.16 µM) was 88.9% and the viability, T/C (second compound 0.949 µM, first compound 10 µM) was 51.9%. It also gave a viability, T/C (second compound 3 µM, first compound 0.0316 µM) of 88.2%, a viability, T/C (second compound 3 µM, first compound 0.1 µM) of 85.3% and a viability, T/C (second compound 3 µM, first compound 0.316 µM) of 81.1%. The viability, T/C (second compound 3 µM, first compound 1 µM) was 83.3%, the viability, T/C (second compound 3 µM, first compound 3.16 µM) was 77.1% and the viability, T/C (second compound 3 µM, first compound 10 µM) was 41.8%.
`Cn1ncnc1[C@H]1c2n[nH]c(=O)c3cc(F)cc(c23)N[C@@H]1c1ccc(F)cc1` was tested, and the viability, T/C (compound 0.000316 µM) was 99% and 111% and 93.9%, the viability, T/C (compound 0.001 µM) was 81.6% and 81.9% and 107% and the viability, T/C (compound 0.00316 µM) was 80.5% and 107% and 99%. The viability, T/C (compound 0.01 µM) was 89.2% and 87.3% and 89%, the viability, T/C (compound 0.0316 µM) was 68.7% and 96.5% and 83% and the viability, T/C (compound 0.1 µM) was 70.7% and 81% and 56.7%. It also gave an IC50 (curve of compound) of over 0.1 µM.
